In article PMC7782785, “Outer-membrane-acting peptides and lipid II-targeting antibiotics cooperatively kill Gram-negative pathogens” (Communications Biology, 2021):
Values after ≈ are worked out from the molar mass of the structure shown. Where a SMILES comes first, the peptide text is derived from it. Where no end group is shown, it is not given here. [ ]: non-standard residue; d: D form.

Columns and labels:
E. aerogenes LMG 02094 [1] = test: microbe, parasite or virus in culture
Experimental: (§1) MIC tests were performed in triplicate by liquid growth inhibition microdilution assays in sterile polypropylene microtiter plates according to the Clinical and Laboratory Standards Institute (CLSI) guideline for bacteria that grow aerobically. Briefly, the indicator strains were first streaked on the appropriate agar plate, and then single colonies were picked and incubated overnight in liquid broth. The final inoculum of bacteria was 5*10^5 CFU/mL prepared in CAMHB (cationic adjusted Mueller–Hinton broth, Sigma-Aldrich) or CAMHB plus 5% of lysed horse blood (TCS Biosciences, Buckingham, UK) in the case of S. pneumoniae. The antimicrobials were 2-fold serially diluted and 50 µL diluted bacterial suspension was added to each well to make the final volume 100 µL. The microtiter plates and the count plates were incubated at 37 °C for 16–20 h without shaking. Growth inhibition was assessed by measuring the OD600 using a microplate reader (Tecan Infinity F200). The lowest concentration of the antimicrobials that inhibits visible growth of the indicator strain is identified as the MIC value.
(§2) The condition for the tests and the analysis of the plates were performed as described above for the MIC tests.

P. aeruginosa LMG 6395 [2] = test: microbe, parasite or virus in culture
Experimental: as §1, §2

E. coli LMG 15862 [3] = test: microbe, parasite or virus in culture
Experimental: as §1, §2

A. baumannii LMG 01041 [4] = test: microbe, parasite or virus in culture
Experimental: as §1, §2

K. pneumoniae LMG 20218 [5] = test: microbe, parasite or virus in culture
Experimental: as §1, §2

E. aerogenes LMG 02094 [6] = tested on: E. aerogenes LMG 02094
Experimental: (§3) For the synergy test, standard checkerboard broth microdilution assays were conducted to test the synergistic effect of combined antimicrobials using the same condition as before[51],[56]. […] The initial concentration of both peptides was their individual MIC. 50 µL fresh bacterial suspension prepared as above was added to the wells already containing the antimicrobial compound mixture to achieve 100 µL final volume per well.
(§4) The fractional inhibitory concentration (FIC) indices[57] were calculated using the formula FICI = FICa + FICb = MICac/MICa + MICbc/MICb, to determine whether the combination is additive, synergistic or antagonistic[51],[57]. The MICa and MICb is the MIC of compound A or B alone, respectively. MICac is the MIC of compound A in combination with compound B and MICbc is the MIC of compound B when it was combined with compound A. The FIC corresponds to the MIC of a compound in combination with the other compound, divided by the MIC of the compound alone. FICa is FIC of compound A while FICb is FIC of compound B. The FICI was interpreted according to EUCAST[58] as follows: synergistic, FICI ≤ 0.5; additive,0.5 < FICI ≤ 1; indifferent, 1 < FICI < 2; antagonistic, FICI ≥ 2.
as §2

P. aeruginosa LMG 6395 [7] = tested on: P. aeruginosa LMG 6395
Experimental: as §3, §4, §2

E. coli LMG 15862 [8] = tested on: E. coli LMG 15862
Experimental: as §3, §4, §2

A. baumannii LMG 01041 [9] = tested on: A. baumannii LMG 01041
Experimental: as §3, §4, §2

K. pneumoniae LMG 20218 [10] = conditions: LMG 20218
Experimental: as §3, §4, §2

[11] = human plasma (EDTA K2), 3.2 mM peptide, 37 °C, 200 rpm, samples at 1, 3, 6 h; read-out halo size in spot-on-lawn against K. pneumoniae LMG 20218; triplicate
Experimental: For plasma stability, the peptides were lyophilized and resuspended in plasma or PBS (as a control) at a final concentration of 3.2 mM. After that, the peptides were incubated with shaking (200 rpm) during 6 h at 37 °C. At time 1, 3, and 6 h, 10 µL samples were tested against K. pneumoniae LMG 20218 by a spot-on-lawn test. Reduction in the size of the halo was related to the degradation of the peptide. The test was performed in triplicate.

[12] = tested on: human red blood cells (hRBCs); test: Hemolytic activity; conditions: 1 h
Experimental: (§5) Hemolytic activity was determined with fresh human red blood cells (hRBCs)[28]. The hRBCs were centrifuged (1000×g, 5 min) and the supernatant was discarded. The pellets were washed three times with PBS and diluted in PBS to make the cell stock solution with a cell density of 2*10^8 cells/mL. […] 1% Triton X-100 and PBS were used as controls. The cells were incubated at 37 °C for 1 h and centrifuged at 2000 rpm for 5 min. The supernatant was transferred to a new 96-well plate and hemolysis was monitored by measuring the absorbance at 450 nm (OD450). Hemolysis levels were calculated as percentage. % hemolysis = 100 × (As−A0)/(At−A0), where As, A0, and At are the absorbance of the hRBCs suspension in PBS with antimicrobial agents (As), without antimicrobial agents (A0), and with 1% Triton X-100 (At). […] For the TI calculation (TI = MHC/GM), other factors as the GM (geometric mean of MIC value of all the Gram-negative strains tested) were calculated.

HEK-293 cells = test: Cytotoxicity, cell viability (CellTiter-Glo); conditions: all the concentrations tested (up to 88 µM)
Experimental: 96-well plates were seeded with HEK-293 cells at a concentration of 3*10^5 cells/well in 100 µL of DMEM growth medium supplemented with 1% NEAA and 10% FBS. Border wells were filled with 100 µL of sterile PBS. […] ATP levels were measured by adding 50 µL of CellTiter-Glo reagent (Promega, Madison, US) to each well, and luminescence was measured with a SpectraMax i3 microplate reader after 5 minutes of incubation. The potential effect of the tested compounds on cell viability was determined by comparing the signal obtained in the presence of different concentrations of the compounds with those obtained in the control wells. All these tests were performed in triplicate.

[13] = tested on: all the Gram-negative strains tested; test: organism not typed
Experimental: as §1, §2
as §5, with “The cells were incubated at 37 °C for 1 h and centrifuged at 2000 rpm for 5 min.” left out

S. pneumoniae R6 = test: MIC, broth microdilution; type: cell-based; conditions: S. pneumoniae R6 (Gram-positive); compound alone; CAMHB plus 5% lysed horse blood
Experimental: as §1

E. faecalis V583 = type: cell-based
Experimental: as §1

E. faecium LMG16003 = type: cell-based
Experimental: as §1

S. aureus LMG8224 = type: cell-based
Experimental: as §1

[14] = tested on: human red blood cells (hRBCs); conditions: cited from earlier work
[15] = compound alone, CLSI broth microdilution, CAMHB, 5*10^5 CFU/mL, 37 °C, 16–20 h, OD600, triplicate

Molecule | MIC (E. aerogenes LMG 02094 [1]; LMG 02094) | MIC (P. aeruginosa LMG 6395 [2]; LMG 6395) | MIC (E. coli LMG 15862 [3]; LMG 15862) | MIC (A. baumannii LMG 01041 [4]; LMG 01041) | MIC (K. pneumoniae LMG 20218 [5]; LMG 20218) | other results
CC[C@@H](C)[C@@H](NC(=O)[C@@H](CCCCN)NC(=O)[C@@H](CCCCN)NC(=O)[C@@H](Cc1c[nH]c2ccccc12)NC(=O)[C@@H](CC(C)C)NC(=O)[C@H](N)CCCNC(=N)N)C(=O)N[C@H](CCCNC(=N)N)C(=O)N[C@H](CCC(N)=O)C(=O)N[C@@H](C(=O)N[C@@H](C(=O)N[C@H](CCCNC(=N)N)C(N)=O)[C@H](C)CC)C(C)C [D-11R] (H-[dR][dL][dW][dK][dK][dI][dR][dQ][dV][dI][dR]-NH2) | 32 µM (≈ 47.8 µg/mL) | 16 µM (≈ 23.9 µg/mL) | 8 µM (≈ 12 µg/mL) | 64 µM (≈ 95.7 µg/mL) | 32 µM (≈ 47.8 µg/mL) | FICI, peptide + nisin (E. aerogenes LMG 02094 [6]): 0.188; FICI, peptide + nisin (P. aeruginosa LMG 6395 [7]): 0.188; FICI, peptide + nisin (E. coli LMG 15862 [8]): 0.375; FICI, peptide + nisin (A. baumannii LMG 01041 [9]): 0.188; FICI, peptide + nisin (K. pneumoniae LMG 20218 [10]): 0.125; stability in plasma [11]: completely resistant to degradation in plasma
CC[C@@H](C)[C@@H](NC(=O)[C@H](N)CCCNC(=N)N)C(=O)N[C@@H](C(=O)N[C@H](CCC(N)=O)C(=O)N[C@H](CCCNC(=N)N)C(=O)N[C@@H](C(=O)N[C@H](CCCCN)C(=O)N[C@H](CCCCN)C(=O)N[C@H](Cc1c[nH]c2ccccc12)C(=O)N[C@H](CC(C)C)C(=O)N[C@H](CCCNC(=N)N)C(N)=O)[C@H](C)CC)C(C)C [D-11] (H-[dR][dI][dV][dQ][dR][dI][dK][dK][dW][dL][dR]-NH2) | 32 µM (≈ 47.8 µg/mL) | 16 µM (≈ 23.9 µg/mL) | 4 µM (≈ 5.98 µg/mL) | 8 µM (≈ 12 µg/mL) | 32 µM (≈ 47.8 µg/mL) | TI, therapeutic index (MHC/GM) [12]: 39.03; MHC, minimal hemolytic concentration that caused 10% hemolysis of hRBCs ([12]; red cells of human): 1200 µM; MHA, mean hemolytic activity ([12]; red cells of human, 50 µM): 0%; MHA, mean hemolytic activity ([12]; red cells of human, 100 µM): 0%; MHA, mean hemolytic activity ([12]; red cells of human, 200 µM): 0%; MHA, mean hemolytic activity ([12]; red cells of human, 400 µM): 0%; MHA, mean hemolytic activity ([12]; red cells of human, 600 µM): 0%; effect on viability of HEK-293 cells (HEK-293 cells): did not affect the viability; GM, MIC geometric mean against all the Gram-negative strains tested [13]: 30.75 µM; MIC (S. pneumoniae R6): > 85 µM; FICI, peptide + nisin (E. aerogenes LMG 02094 [6]): 0.188; FICI, peptide + nisin (P. aeruginosa LMG 6395 [7]): 0.156; FICI, peptide + nisin (E. coli LMG 15862 [8]): 0.375; FICI, peptide + nisin (A. baumannii LMG 01041 [9]): 0.094; FICI, peptide + nisin (K. pneumoniae LMG 20218 [10]): 0.078; MIC (E. faecalis V583): 64 µM (≈ 95.7 µg/mL); MIC (E. faecium LMG16003): 10.6 µM (≈ 15.8 µg/mL); MIC (S. aureus LMG8224): > 85 µM; stability in plasma [11]: completely resistant to degradation in plasma
AIVQRIKKWLR-NH2 [L-13] | 128 µM | 16 µM | 12 µM | 128 µM | 24 µM | 
GIGKHVGKALKGLKGLLKGLGEC [L-7] | 8 µM | 13 µM | 6 µM | 2 µM | 12 µM | 
GNNRPVYIPQPRPPHPRL [L-1] | 8 µM | >64 µM | 0.5 µM | >64 µM | 5 µM | 
KIVQRIKKWLR-NH2 [L-12] | 256 µM | 16 µM | 16 µM | 128 µM | 32 µM | 
KRIVQRIKKWLR-NH2 [L-8] | 32 µM | 16 µM | 4 µM | 16 µM | 64 µM | hemolytic activity [14]: very low hemolytic activity
RIKRRIKKWLR-NH2 [L-15] | >256 µM | 32 µM | 24 µM | >256 µM | >256 µM | 
RIRKRIKKWLR-NH2 [L-14] | >256 µM | 16 µM | 16 µM | >256 µM | >256 µM | 
RIVQRIKKWL-NH2 [L-10] | >256 µM | 16 µM | 32 µM | 128 µM | 64 µM | 
RIVQRIKKWLR-NH2 [L-11] | 128 µM | 16 µM | 12 µM | >64 µM | 32 µM | FICI, peptide + nisin (A. baumannii LMG 01041 [9]): 0.063; stability in plasma [11]: almost completely degraded within the first 3 h
RIVQRIKKWR-NH2 [L-9] | >256 µM | >256 µM | 256 µM | >256 µM | >256 µM | 
RIWVIWRR-NH2 [L-5] | 5 µM | 3 µM | 3 µM | 2 µM | 6 µM | 
RLLFRKIRRLKR [L-4] | >256 µM | >128 µM | 64 µM | >128 µM | >256 µM | 
RRLFRRILRWL-NH2 [L-6] |  |  |  |  |  | MIC (E. aerogenes LMG 02094 [1]; [15]): 8 µM; MIC (P. aeruginosa LMG 6395 [2]; [15]): 3 µM; MIC (E. coli LMG 15862 [3]; [15]): 2 µM; MIC (A. baumannii LMG 01041 [4]; [15]): 2 µM; MIC (K. pneumoniae LMG 20218 [5]; [15]): 4 µM; hemolytic activity in previous studies [14]: rather high hemolytic activity
VDKGSYLPRPTPPRPIYNRN-NH2 [L-3] | >32 µM | 32 µM | 3 µM | 8 µM | 16 µM | 
VDKPPYLPRPRPPRRIYNR [L-2] | >64 µM | >64 µM | 4 µM | 16 µM | 8 µM | 
